Laboratory results as given in patent US6525001B1, “Substituted pyrimidine and pyridine herbicides” (Mid-American Commercialization Corporation, priority 1997, dated 2003).

Key:
Assay type in all cases: in vivo
Design in all cases: key: 0 is no effect; 10 is complete control
soybean (Glycine max) = experiment: Test B pre-/postemergence
Summary of the method: (§1)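 Compounds in a surfactant-containing, non-phytotoxic solvent blend are applied to freshly planted seed (preemergence) and, concurrently, to seedlings of 2 to 18 cm at 1–4 leaves (postemergence). Plants stay in the greenhouse twelve to sixteen days and are then scored visually from 0 (no effect) to 10 (complete control).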

[1] = tested on: purple nutsedge (Cyperus rotundus); experiment: Test B pre-/postemergence
Summary of the method: as §1

rape (Brassica napus) = experiment: Test B pre-/postemergence
Summary of the method: as §1

[2] = tested on: sugar beet (Beta vulgaris); experiment: Test B pre-/postemergence
Summary of the method: as §1

[3] = tested on: giant foxtail (Setaria faberii); experiment: Test B pre-/postemergence
Summary of the method: as §1

[4] = tested on: wheat (Triticum aestivum); experiment: Test B pre-/postemergence
Summary of the method: as §1

corn (Zea mays) = experiment: Test B pre-/postemergence
Summary of the method: as §1

[5] = tested on: bedstraw (Galium aparine); experiment: Test B pre-/postemergence
Summary of the method: as §1

[6] = tested on: crabgrass (Digitaria sanguinalis); experiment: Test B pre-/postemergence
Summary of the method: as §1

wild oat (Avena fatua) = experiment: Test B pre-/postemergence
Summary of the method: as §1

[7] = tested on: velvetleaf (Abutilon theophrasti); experiment: Test B pre-/postemergence
Summary of the method: as §1

[8] = tested on: bamyardgrass (Echinochloa crus-galli); experiment: Test B flood test; settings: for Plant response rating, Barnyardgrass: Postemergence (flood test species)
Summary of the method: (§2)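 Read-out is a visual response score from 0 (no effect) to 10 (complete control), assigned by comparison with untreated controls. Treatment was applied at the 2-leaf stage, and plants stayed in the greenhouse for twelve to sixteen days before scoring.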

[9] = tested on: smallflower flatsedge (Cyperus difformis); experiment: Test B flood test; settings: for Plant response rating, S. Flatsedge: Postemergence (flood test species)
Summary of the method: as §2

[10] = tested on: duck salad (Heteranthera limosa); experiment: Test B flood test; settings: for Plant response rating, Ducksalad: Postemergence (flood test species)
Summary of the method: as §2

rice (Oryza sativa) = experiment: Test B flood test; settings: for Plant response rating, Rice: Postemergence (flood test species)
Summary of the method: as §2

[11] = Preemergence, Rate 62 g/ha, scale of 0 to 10
[12] = Rate 62 g/ha, Postemergence (flood test)
[13] = Rate 125 g/ha, Postemergence section (flood test species)

Cc1cnc(-n2cnc(C(F)(F)F)c2)nc1C(=O)c1cccc(OC(F)(F)F)c1 [Compound 63]
4: Rape plant response rating (rape (Brassica napus); Rate 125 g/ha, Postemergence) | Plant response rating, Rape (rape (Brassica napus); Rate 250 g/ha, Preemergence) | Plant response rating, Wheat ([4]; Rate 500 g/ha, Preemergence) | Plant response rating, Bedstraw ([5]; Rate 125 g/ha, Preemergence) | Plant response rating, Bedstraw ([5]; Rate 250 g/ha, Preemergence) | Plant response rating, Crabgrass ([6]; Rate 250 g/ha, Postemergence) | S. Flatsedge plant response rating [9, 12]
1: Plant response rating, Corn (corn (Zea mays); Rate 125 g/ha, Preemergence) | Plant response rating, Corn (corn (Zea mays); Rate 250 g/ha, Preemergence) | Barnyardgrass plant response rating [8, 12] | Plant response rating, Rice (rice (Oryza sativa); Rate 250 g/ha) | Plant response rating, Rice (rice (Oryza sativa); Rate 500 g/ha)
2: Soybean plant response rating (soybean (Glycine max); Rate 125 g/ha, Postemergence) | Plant response rating, Soybean (soybean (Glycine max); Rate 250 g/ha, Postemergence) | Plant response rating, Soybean (soybean (Glycine max); Rate 500 g/ha, Postemergence) | Plant response rating, Giant foxtail [3, 11] | Giant foxtail plant response rating ([3]; Rate 62 g/ha, Postemergence) | Giant foxtail plant response rating ([3]; Rate 125 g/ha, Postemergence) | Plant response rating, Wheat [4, 11] | Wheat plant response rating ([4]; Rate 62 g/ha, Postemergence) | Wheat plant response rating ([4]; Rate 125 g/ha, Postemergence) | Plant response rating, Wheat ([4]; Rate 125 g/ha, Preemergence) | Plant response rating, Wheat ([4]; Rate 250 g/ha, Postemergence) | Plant response rating, Wheat ([4]; Rate 500 g/ha, Postemergence) | Corn plant response rating (corn (Zea mays); Rate 125 g/ha, Postemergence) | Plant response rating, Corn (corn (Zea mays); Rate 250 g/ha, Postemergence) | Plant response rating, Corn (corn (Zea mays); Rate 500 g/ha, Postemergence) | Plant response rating, Corn (corn (Zea mays); Rate 500 g/ha, Preemergence) | Plant response rating, Bedstraw [5, 11] | Bedstraw plant response rating ([5]; Rate 62 g/ha, Postemergence) | Bedstraw plant response rating ([5]; Rate 125 g/ha, Postemergence) | Wild oats plant response rating (wild oat (Avena fatua); Rate 125 g/ha, Postemergence) | Plant response rating, Wild oats (wild oat (Avena fatua); Rate 250 g/ha, Postemergence) | Plant response rating, Wild oats (wild oat (Avena fatua); Rate 500 g/ha, Postemergence) | Plant response rating, Velvetleaf [7, 11] | Velvetleaf plant response rating ([7]; Rate 62 g/ha, Postemergence) | Plant response rating, Velvetleaf ([7]; Rate 125 g/ha, Preemergence) | Plant response rating, Ducksalad ([10]; Rate 250 g/ha)
3: Plant response rating, Rape (rape (Brassica napus); [11]) | Rape plant response rating (rape (Brassica napus); Rate 62 g/ha, Postemergence) | Plant response rating, Rape (rape (Brassica napus); Rate 125 g/ha, Preemergence) | Plant response rating, Giant foxtail ([3]; Rate 125 g/ha, Preemergence) | Plant response rating, Giant foxtail ([3]; Rate 250 g/ha, Postemergence) | Plant response rating, Giant foxtail ([3]; Rate 500 g/ha, Postemergence) | Plant response rating, Wheat ([4]; Rate 250 g/ha, Preemergence) | Plant response rating, Crabgrass [6, 11] | Crabgrass plant response rating ([6]; Rate 62 g/ha, Postemergence) | Crabgrass plant response rating ([6]; Rate 125 g/ha, Postemergence) | Plant response rating, Wild oats (wild oat (Avena fatua); [11]) | Wild oats plant response rating (wild oat (Avena fatua); Rate 62 g/ha, Postemergence) | Plant response rating, Wild oats (wild oat (Avena fatua); Rate 125 g/ha, Preemergence) | Barnyardgrass plant response rating [8, 13] | Plant response rating, Barnyardgrass ([8]; Rate 250 g/ha) | Plant response rating, Barnyardgrass ([8]; Rate 500 g/ha)
8: Plant response rating, Rape (rape (Brassica napus); Rate 250 g/ha, Postemergence) | Plant response rating, Rape (rape (Brassica napus); Rate 500 g/ha, Postemergence) | Plant response rating, Rape (rape (Brassica napus); Rate 500 g/ha, Preemergence) | Plant response rating, Giant foxtail ([3]; Rate 500 g/ha, Preemergence) | Plant response rating, Bedstraw ([5]; Rate 500 g/ha, Postemergence) | Plant response rating, Bedstraw ([5]; Rate 500 g/ha, Preemergence) | Plant response rating, Crabgrass ([6]; Rate 250 g/ha, Preemergence) | Plant response rating, Wild oats (wild oat (Avena fatua); Rate 500 g/ha, Preemergence) | Velvetleaf plant response rating ([7]; Rate 125 g/ha, Postemergence) | Plant response rating, Velvetleaf ([7]; Rate 250 g/ha, Postemergence) | Plant response rating, Velvetleaf ([7]; Rate 500 g/ha, Postemergence) | Plant response rating, S. Flatsedge ([9]; Rate 250 g/ha)
7: S. Flatsedge plant response rating [9, 13]
10: Plant response rating, Sugarbeets [2, 11] | Sugarbeets plant response rating ([2]; Rate 62 g/ha, Postemergence) | Plant response rating, Sugarbeets ([2]; Rate 125 g/ha, Preemergence) | Plant response rating, Sugarbeets ([2]; Rate 250 g/ha, Preemergence) | Plant response rating, Sugarbeets ([2]; Rate 500 g/ha, Preemergence) | Plant response rating, Velvetleaf ([7]; Rate 250 g/ha, Preemergence) | Plant response rating, Velvetleaf ([7]; Rate 500 g/ha, Preemergence)
9: Sugarbeets plant response rating ([2]; Rate 125 g/ha, Postemergence) | Plant response rating, Sugarbeets ([2]; Rate 250 g/ha, Postemergence) | Plant response rating, Sugarbeets ([2]; Rate 500 g/ha, Postemergence) | Plant response rating, Crabgrass ([6]; Rate 500 g/ha, Preemergence) | Plant response rating, S. Flatsedge ([9]; Rate 500 g/ha)
0: Plant response rating, Soybean (soybean (Glycine max); [11]) | Soybean plant response rating (soybean (Glycine max); Rate 62 g/ha, Postemergence) | Plant response rating, Soybean (soybean (Glycine max); Rate 125 g/ha, Preemergence) | Plant response rating, Soybean (soybean (Glycine max); Rate 250 g/ha, Preemergence) | Plant response rating, Soybean (soybean (Glycine max); Rate 500 g/ha, Preemergence) | Plant response rating, Nutsedge [1, 11] | Nutsedge plant response rating ([1]; Rate 62 g/ha, Postemergence) | Plant response rating, Nutsedge ([1]; Rate 125 g/ha, Preemergence) | Plant response rating, Nutsedge ([1]; Rate 250 g/ha, Postemergence) | Plant response rating, Nutsedge ([1]; Rate 500 g/ha, Preemergence) | Plant response rating, Corn (corn (Zea mays); [11]) | Corn plant response rating (corn (Zea mays); Rate 62 g/ha, Postemergence) | Ducksalad plant response rating [10, 12] | Ducksalad plant response rating [10, 13] | Rice plant response rating (rice (Oryza sativa); [12]) | Rice plant response rating (rice (Oryza sativa); [13])
5: Plant response rating, Bedstraw ([5]; Rate 250 g/ha, Postemergence) | Plant response rating, Wild oats (wild oat (Avena fatua); Rate 250 g/ha, Preemergence)
6: Plant response rating, Giant foxtail ([3]; Rate 250 g/ha, Preemergence) | Plant response rating, Crabgrass ([6]; Rate 125 g/ha, Preemergence) | Plant response rating, Crabgrass ([6]; Rate 500 g/ha, Postemergence) | Plant response rating, Ducksalad ([10]; Rate 500 g/ha)
